The results in this text go back to PubChem BioAssay AID720701 (Sanford-Burnham Center for Chemical Genomics, 2013).

SMILES strings stand for the structures. Active and inactive are the calls of the source. The rule behind the calls is not given here. Some results are limits rather than exact numbers.

The target in this assay is Protein artemis (Homo sapiens) (UniProt Q96SD1). The experiment in a line: Artemis endonuclease inhibitor potency, dose response, biochemical, fluorescence intensity (AID 720701). The settings on record: Recombinant Artemis endonuclease.
Protein artemis (Homo sapiens), sequence (Q96SD1 whole entry, looked up): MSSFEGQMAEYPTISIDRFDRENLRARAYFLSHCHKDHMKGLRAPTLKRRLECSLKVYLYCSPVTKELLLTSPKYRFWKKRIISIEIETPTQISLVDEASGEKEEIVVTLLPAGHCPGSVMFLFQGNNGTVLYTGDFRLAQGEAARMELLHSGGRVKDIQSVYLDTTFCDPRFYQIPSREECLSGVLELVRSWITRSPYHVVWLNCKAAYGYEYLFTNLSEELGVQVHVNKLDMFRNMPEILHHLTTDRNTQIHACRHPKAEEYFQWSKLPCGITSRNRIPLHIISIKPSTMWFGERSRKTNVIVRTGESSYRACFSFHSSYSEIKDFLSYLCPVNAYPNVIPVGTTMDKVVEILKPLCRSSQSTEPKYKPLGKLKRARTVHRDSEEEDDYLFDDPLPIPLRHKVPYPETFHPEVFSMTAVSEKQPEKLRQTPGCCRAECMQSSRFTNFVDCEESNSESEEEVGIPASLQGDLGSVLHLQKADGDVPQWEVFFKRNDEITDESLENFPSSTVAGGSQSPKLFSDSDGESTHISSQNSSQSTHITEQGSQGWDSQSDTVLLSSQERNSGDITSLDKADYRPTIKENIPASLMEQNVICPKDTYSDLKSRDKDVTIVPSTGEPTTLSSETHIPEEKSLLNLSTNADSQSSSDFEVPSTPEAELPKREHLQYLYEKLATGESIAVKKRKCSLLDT
For the compound `CN1/C(=N\O)c2cccc3cccc1c23`, the IC50 is > 20 µM (inactive).
For `Cc1cc(C)n(-c2nc(Nc3ccccc3C(F)(F)F)nc(-n3nc(C)cc3C)n2)n1`, the IC50 is 5 µM.
With `COc1cccc(N=Nc2c(N)[nH]n3c(=O)cc(-c4ccccc4)nc23)c1`, the IC50 is 16.2 µM.
The same measure for `COc1ccc(O)c(/C=N/Nc2nc(Nc3ccccc3)nc(-n3nc(C)cc3C)n2)c1`: 2.23 µM.
As to `O=c1c2ccccc2nc(N/N=C/c2c(O)ccc3ccccc23)n1O`, the IC50 is 4.68 µM.
For `COc1ccc(C(=O)c2c(C(F)(F)F)oc3c2C(=O)c2ccccc2C3=O)cc1OC` the value was > 20 µM (inactive); for `C/C(=N\O)c1ccccc1C(=O)O`, 3.62 µM; for `Cc1nnc(-c2ccccc2)c(=O)n1/N=C/c1c(O)ccc2ccccc12`, > 20 µM (inactive).
For `N#CC1=C(N)Oc2n[nH]c(-c3cccs3)c2C1c1ccoc1` (stereo unspecified) the value was > 20 µM (inactive); for `CCCCCCCCC/C(=N\O)c1ccccn1`, 11 µM; for `CCN(CC)c1ccc(/C=N/Nc2nc3ccccc3[nH]2)c(O)c1`, 15.5 µM.
For the compound `O=C(CCCSc1ccccc1)Nc1nc(-c2ccccn2)cs1`, the IC50 is 9.58 µM.
Consider `Nc1[nH]n2c(=O)c3c(nc2c1N=Nc1ccc(Cl)cc1)CCCC3`, for which the IC50 is 16.4 µM.
As to `COc1ccc(Nc2nc(NCc3ccco3)nc(N/N=C/c3ccccc3)n2)cc1`, the half-maximal inhibitory concentration (IC50) was 2.65 µM.
Regarding `Oc1ccc2ccccc2c1C=NC12CN3CCN(CN(C3)C1)C2`, the IC50 is 3.64 µM.
For `COc1cccc(/C=N/Nc2nc(Nc3ccccc3)nc(-n3nc(C)cc3C)n2)c1O`, the IC50 was 1.5 µM.
